# Columns and labels:
# [1] = in vivo; cited from earlier work
# [2] = in vivo; cited from earlier work; remark: listed apart in the source
# [3] = cited from earlier work
# [4] = for Free Plasma (f) vs Total Plasma (tp) regression equation / r, free plasma vs total plasma / Saliva (s) vs Total Plasma (tp) regression equation / r, saliva vs total plasma: human; for Saliva (s) vs Total Plasma (tp) regression equation / r, saliva vs total plasma / correlation of free drug or saliva drug concentration with total drug concentration (in words): in vivo
# Method: Protein binding and free drug measurement: An Institutional Review Board (IRB) approved protocol was developed for the assessment of free drug concentrations by measuring both the saliva and free drug in plasma utilizing the tandem mass spectrometric methods for plasma or serum measurement. […] A bigger sample is injected for the free drug measurement (50 uL vs 10 uL for plasma/serum.). Free drug concentrations can be measured by using either equilibrium dialysis or, more commonly, devices with molecular cutoff filters such as the Amicon Centrifree micropartition system (Millipore Corporation, Bedford, Mass.) or the Worthington Diagnostics “ultrafree” system (Worthington, Jacksonville, Fla.). Plasma ultrafiltrate is obtained by centrifuging 1 mL of plasma in Amicon system and then deproteinising as described for serum/plasma previously (15, 40).
Free Plasma (f) vs Total Plasma (tp) regression equation [4],"r, free plasma vs total plasma [4]",Saliva (s) vs Total Plasma (tp) regression equation [4],"r, saliva vs total plasma [4]",correlation of free drug or saliva drug concentration with total drug concentration (in words) [4],Compound,Trough Concentration [1],C max. [2] [ng/mL],C min. [2],t ½ [2] [h],Protein Bindings % [3] [%],Vd [2] [L/kg]
,,,,,CC(C)Nc1cccnc1N1CCN(C(=O)c2cc3cc(NS(C)(=O)=O)ccc3[nH]2)CC1 [Delavirdine],3000 to 8000 ng/mL,16000,3000 ng/mL,6,99,
f = 0.19tp + 47,0.749,s = 0.29tp + 20,0.912,good correlations,O=c1[nH]cnc2c1ncn2[C@H]1CC[C@@H](CO)O1 [Didanosine],100 to 300 ng/mL,24000,,,,0.8
,,,,,CC(C)(C)NC(=O)[C@@H]1CN(Cc2cccnc2)CCN1C[C@@H](O)C[C@@H](Cc1ccccc1)C(=O)N[C@H]1c2ccccc2C[C@H]1O [Indinavir],,10000,,,,
,,,,,Nc1ccn([C@@H]2CS[C@H](CO)O2)c(=O)n1 [Lamivudine],100 to 1000 ng/mL,1800,,,,
,,s = 0.05tp + 194,0.777,good correlations,Cc1cccc(C)c1OCC(=O)N[C@@H](Cc1ccccc1)[C@@H](O)C[C@H](Cc1ccccc1)NC(=O)[C@H](C(C)C)N1CCCNC1=O [Lopinavir],,,,,,
f = 0.36tp + 483,0.909,,0.901,good correlations,Cc1ccnc2c1NC(=O)c1cccnc1N2C1CC1 [Nevirapine],3000 ng/mL,20000,3000 ng/mL,30,60,1.2
,,s = 0.043tp + 109,0.991,good correlations,CC(C)c1nc(CN(C)C(=O)N[C@H](C(=O)N[C@@H](Cc2ccccc2)C[C@H](O)[C@H](Cc2ccccc2)NC(=O)OCc2cncs2)C(C)C)cs1 [Ritonavir],1000 ng/mL,14000,1000 ng/mL,4,,0.4
,,,,,CC(C)(C)NC(=O)[C@@H]1C[C@@H]2CCCC[C@@H]2CN1C[C@@H](O)[C@H](Cc1ccccc1)NC(=O)[C@H](CC(N)=O)NC(=O)c1ccc2ccccc2n1 [Saquinavir],15 to 40 ng/mL,500,,12,,10
f = 0.66tp − 4,0.924,,0.909,good correlations,Cc1cn([C@H]2C=C[C@@H](CO)O2)c(=O)[nH]c1=O [Stavudine],20 ng/mL,2000,20 ng/mL,1.1,,1.0
,,,,,Nc1ccn([C@H]2CC[C@@H](CO)O2)c(=O)n1 [Zalcitabine],Undetectable,<25,undetectable,2.0,<5,0.5

Compound,Free Plasma (f) vs Total Plasma (tp) regression equation [4],"r, free plasma vs total plasma [4]",Saliva (s) vs Total Plasma (tp) regression equation [4],"r, saliva vs total plasma [4]",correlation of free drug or saliva drug concentration with total drug concentration (in words) [4],Trough Concentration [1],C max. [2] [ng/mL],C min. [2],t ½ [2] [h],Protein Bindings % [3] [%],Vd [2] [L/kg]
Cc1c(O)cccc1C(=O)N[C@@H](CSc1ccccc1)[C@H](O)CN1C[C@H]2CCCC[C@H]2C[C@H]1C(=O)NC(C)(C)C [Nelfinavir],,,s = 0.0026tp + 78,0.047,not,1000 ng/mL,4000,1000 ng/mL,5,98,4
Cc1cn([C@H]2C[C@H](N=[N+]=[N-])[C@@H](CO)O2)c(=O)[nH]c1=O [Zidovudine],f = 0.14tp + 27,0.907,,,good correlations,<20 ng/mL,1800,<20 ng/mL,1.2,<5,1.4

# From patent US20050032042A1, “Anti-retroviral analysis by mass spectrometry” (priority 2003, published 2005)
